In US10632124B2, “Adrenoceptors antagonists for the prevention and treatment of neurodegenerative conditions” (Cedars-Sinai Medical Center, priority 2013, dated 2020):

Assays:
[1] = in vivo; cited from earlier work
Parkinson's disease = settings: in vivo; cited from earlier work
[2] = system: patients with a diagnosis of iPD; assay: Retrospective cross-sectional medical record analysis of 333 iPD patients: constipation; assay type: in vivo, human; settings: for Constipation, % of patients / No Constipation, % of patients: by dopaminergic treatment
From the text: The inventors conducted a retrospective, cross-sectional medical record analysis of 333 consecutive patients with a diagnosis of iPD seen in the Movement Disorders clinic of Cedars-Sinai Medical Center from October 2010 to March 2014. Demographic and clinical data, including vitals, motor and non-motor symptoms, dopaminergic medications, comorbidities and anti-hypertensive medications were collected at the initial consultation visit. All data were collected in an Excel database and analyzed by SPSS version 19.0 (SPSS, Inc., Chicago, Ill.). Continuous variables were expressed as mean±standard deviation and compared by the use of Student t test (normally distributed) or as median±interquartile range value and compared by the use of Mann-Whitney U test (not normally distributed), as appropriate. Normality of data distribution was evaluated using the Kolmogorov-Smirnov test. Categorical variables were expressed as proportion and compared by use of χ^2 test with risk ratios and 95% confidence intervals quoted. To determine the independent predictors of constipation, logistic regression analysis was performed. Variables achieving p<0.1 on univariate analysis were then included in a multivariate analysis. Statistical significance was accepted at p<0.05. […] Constipation was strongly associated with dopaminergic treatment. On the other hand, only 28/63 (44.4%) patients treated with beta-blockers reported constipation (Table 2).

[3] = system: Parkinson's disease patient; assay: Case report of one Parkinson's disease patient; assay type: in vivo, human
Procedure: Low-dose beta-blocker therapy (carvedilol 6.25 mg BID) was started to treat anxiety avoiding the sedative effect of benzodiazepine.

[4] = system: rectum, mid colon and distal colon; settings: wild type rats, cited from earlier work
[5] = current (oral) formulations; cited from earlier work

Question: For `C=CCOc1ccccc1OCC(O)CNC(C)C` (centres unmarked) [oxprenolol], which “passage of the blood-brain barrier” value [1] is on record?
Answer: pass the blood-brain barrier

Question: For `CCC1(c2c[nH]cn2)Cc2ccc(F)cc2C1` (centres unmarked) [fipemazole], which levodopa-induced dyskinesias (Parkinson's disease) is on record?
Answer: could also be diminished

Question: With `Cc1cc2c(OCC(CNC(C)(C)C)OC(=O)c3ccccc3)cccc2[nH]1` (centres unmarked) [bopindolol] as the molecule, how does the “passage of the blood-brain barrier” value [1] read?
Answer: pass the blood-brain barrier

Question: Which levodopa-induced dyskinesias (Parkinson's disease) does the source give for `c1ccc2c(c1)OCC(C1=NCCN1)O2` (centres unmarked) [idaxozan] here?
Answer: could also be diminished

Question: Which “resting, postural, and action tremor in Parkinson's disease” value (Parkinson's disease) does the source give for `CC(C)(C)NCC(O)COc1cccc2c1CC(O)C(O)C2` (centres unmarked) [nadolol] here?
Answer: can be diminished

Question: Which “passage of the blood-brain barrier” value [1] does the source give for `CC(C)(C)NC[C@H](O)COc1nsnc1N1CCOCC1` [timolol] here?
Answer: pass the blood-brain barrier

Question: Which “OR of constipation, univariate logistic regression” value [2] does the source give for `NC12CC3CC(CC(C3)C1)C2` [Amantadine] here?
Answer: 1.528

Question: Which results are given for `N[C@@H](Cc1ccc(O)c(O)c1)C(=O)O` [Levodopa, levodopa]?
Answer: motor symptoms ([3]; Sinemet 25/100 TID added to pramipexole): almost complete resolution of motor symptoms; Constipation, % of patients ([2]; Betablockers): 60.0%; No Constipation, % of patients ([2]; Betablockers): 40.0%; Constipation, % of patients ([2]; No Betablockers): 71.7%; No Constipation, % of patients ([2]; No Betablockers): 28.3%; OR of constipation, multivariate logistic regression ([2]; multivariate incl. age, gender, PD duration, levodopa, dopamine-agonists, beta-blockers): 2.077; OR of constipation, univariate logistic regression [2]: 2.659

Question: Which “relaxations induced by hypogastric nerve stimulation” value ([4]; rectum, mid colon, distal colon) does the source give for `CC(C)NCC(O)COc1cccc2ccccc12` (centres unmarked) [propranolol] here?
Answer: abolished

Question: And the levodopa-induced dyskinesias (Parkinson's disease)?
Answer: could reduce levodopa-induced dyskinesias without worsening Parkinsonism

Question: And the “passage of the blood-brain barrier” value [1]?
Answer: pass the blood-brain barrier

Question: Which tolerability ([3]; doses up to 1.5 mg TID) does the source give for `CCCN[C@H]1CCc2nc(N)sc2C1` [pramipexole] here?
Answer: tolerated well

Question: With `COc1ccccc1OCCNCC(O)COc1cccc2[nH]c3ccccc3c12` (centres unmarked) [carvedilol] as the molecule, how does the absorption [5] read?
Answer: rapid and complete

Question: And the average elimination half-life [5]?
Answer: about 8 hours

Question: What about the “passage of the blood-brain barrier” value [1] of the same molecule?
Answer: pass the blood-brain barrier

Question: And the “anxiety, constipation and sleep” value ([3]; 6.25 mg BID)?
Answer: improved dramatically

Question: And the “GI symptoms (abdominal bloating and constipation)” value ([3]; restarted at the same dose after self-discontinuation)?
Answer: virtually immediate resolution

Question: Which “passage of the blood-brain barrier” value [1] does the source give for `CC(C)NCC(O)COc1ccc(COCCOC(C)C)cc1` (centres unmarked) [bisopropolol] here?
Answer: pass the blood-brain barrier

Question: Which “contractions induced by vagus nerve and pelvic nerve stimulation” value [4] does the source give for `CN1[C@@H]2CC[C@H]1C[C@@H](OC(=O)C(CO)c1ccccc1)C2` (some centres unmarked) [atropine] here?
Answer: abolished

Question: With `CC(C)NCC(O)COc1ccc(CCOCC2CC2)cc1` (centres unmarked) [betaxolol] as the molecule, how does the “passage of the blood-brain barrier” value [1] read?
Answer: pass the blood-brain barrier
